Data taken from patent publication US20070254038A1, “Microspheroidal Controlled Release Of Biomolecules” (The Trustees of the University of Pennsylvania, priority 2006, published 2007).
Entries after “also recorded” stand apart in the source; their conditions may differ.

Assay: Incorporation of vancomycin into acid-catalyzed (AC) and acid-base catalyzed (ABC) sols: clear vs cloudy (precipitation)
Type: physicochemical
Procedure: TEOS (10 ml) and 0.1 M HCl (2.4 ml), with or without the addition of deionized water, were mixed using a magnetic stirrer until a one-phase sol was formed. The water/TEOS molar ratio varied from 0 to 10. Pharmaceutical agents were then added to the sol. For example, Sols with 20 mg/g and 30 mg/g of vancomycin (drug to SiO2 ratio), and sols with 50 mg/g and 80 mg/g of bupivacaine per gram SiO2 were made by adding corresponding amounts of the drug. The sol containing added pharmaceutical agents was mixed for 30 minutes at 660 rpm and was then allowed to stand for 15 minutes. Subsequently, 0.08 M NH4OH (2.2-2.4 ml) was added dropwise to the sol, which was stirred at 660 rpm targeting a final pH of about 5.5. Under these conditions, the time to gelation varied from about 20 and 40 minutes. Upon mixing, the sol was added dropwise into vegetable oil stirred at speeds between 220 and 440 rpm and microspheres precipitated to the bottom of the beaker. Microspheres were filtered through a 70 μm nylon microporous filter and then rinsed with DI water and alcohol. The microspheres were left to dry overnight in a laminar flow hood.
Vancomycin (vancomycin-HCl; Abbott Labs, Chicago, Ill.) dissolved in water at 100 mg/ml was used for incorporation into the sols. Bupivacaine (Spectrum, New Brunswick, N.J.) dissolved in methanol at 70 mg/ml was also used for incorporation into the sols.
The effect of water content on the incorporation of vancomycin into the sol was studied by using either “water-free” (no additional water added other than that contained in the aqueous HCl solution) acid-catalyzed sols or sols with added water/TEOS molar ratios (R) of 5, 6, 8, and 10. […] When water was added at R=4, low doses of vancomycin such as 16.7 mg/g SiO2 could be added to the acid-catalyzed sol.

CN[C@H](CC(C)C)C(=O)N[C@H]1C(=O)N[C@@H](CC(N)=O)C(=O)N[C@H]2C(=O)N[C@H]3C(=O)N[C@H](C(=O)N[C@H](C(=O)O)c4cc(O)cc(O)c4-c4cc3ccc4O)[C@H](O)c3ccc(c(Cl)c3)Oc3cc2cc(c3O[C@@H]2O[C@H](CO)[C@@H](O)[C@H](O)[C@H]2O[C@H]2C[C@](C)(N)[C@H](O)[C@H](C)O2)Oc2ccc(cc2Cl)[C@H]1O [Vancomycin, vancomycin]
appearance of sol on incorporation of vancomycin (water-free AC sol, vancomycin loading 16.7 mg/g): cloudy | appearance of sol on incorporation of vancomycin (water/TEOS R=4, ABC sol (after base), loading 16.7 mg/g): precipitation of vancomycin was seen; also recorded: cloudy | appearance of sol on incorporation of vancomycin (water/TEOS R=4, AC sol, loading 16.7 mg/g): clear | appearance of sol on incorporation of vancomycin (water/TEOS R=5, ABC sol (after base), loading 28 mg/g): vancomycin precipitation was observed; also recorded: cloudy | appearance of sol on incorporation of vancomycin (water/TEOS R=5, ABC sol, loading 16.7 mg/g): clear | appearance of sol on incorporation of vancomycin (water/TEOS R=5, ABC sol, loading 22.2 mg/g): clear | appearance of sol on incorporation of vancomycin (water/TEOS R=5, AC sol, loading 16.7 mg/g): clear | appearance of sol on incorporation of vancomycin (water/TEOS R=5, AC sol, loading 22.2 mg/g): clear | appearance of sol on incorporation of vancomycin (water/TEOS R=5, AC sol, loading 28 mg/g): clear | precipitation after the addition of the drug and base (water/TEOS R=5, doses up to 20 mg/g SiO2): no precipitation was observed | appearance of sol on incorporation of vancomycin (water/TEOS R=8, ABC sol, loading 22.2 mg/g): clear | appearance of sol on incorporation of vancomycin (water/TEOS R=8, ABC sol, loading 33 mg/g): clear | appearance of sol on incorporation of vancomycin (water/TEOS R=8, AC sol, loading 22.2 mg/g): clear | appearance of sol on incorporation of vancomycin (water/TEOS R=8, AC sol, loading 33 mg/g): clear | appearance of sol on incorporation of vancomycin (water/TEOS R=10, ABC sol, loading 22.2 mg/g): clear | appearance of sol on incorporation of vancomycin (water/TEOS R=10, AC sol, loading 22.2 mg/g): clear | incorporation of higher loads into the sol (water/TEOS ratios 8 and above, load such as 28 mg/g SiO2): successfully incorporated
